Assay: TEAC assay (trolox equivalent antioxidant activity assay)
Conditions: absorption at 734 nm measured after 6 minutes; relative to trolox = 1.0
Protocol: • a) The basis for the determination of the antioxidative efficacy is the so-called DPPH test, as described in Bünger et al. [Buenger, J., Ackermann, H., Jentzsch, A., Mehling, A., Pfizner, I., Reiffen, K.-A., Schroeder, K.-R., and Wollenweber U., An interlaboratory comparison of methods used to assess antioxidant potentials, Int. J. Cosm. Sci., 28 (2006) 1-12]. The anti-oxidative efficacy of [(7,8-dihydroxy-4-oxo-4H-chromen-3-yl)hydroxy-methyl]phosphonic acid is determined in the DPPH test. […] J. Cosm. Sci., 28 (2006), 1-12].
ABTS [2,2′-azinobis(3-ethylbenzothiazoline-6-sulfonic acid)] reacts with potassium peroxodisulfate by generating a stable free-radical cation which absorbs at 734 nm. The antioxidant measured reduces the free-radical cation and thus causes a weakening of the absorption capacity at 734 nm. The absorption is measured after a fixed time span of 6 minutes. The anti-oxidative potential of the substance measured is indicated as activity compared with trolox. The substance measured may be present dissolved in water or ethanol during the measurement.

Q: For `O=c1c(C(O)P(=O)(O)O)coc2c(O)c(O)ccc12` (centres unmarked) [Example 1, [(7,8-dihydroxy-4-oxo-4H-chromen-3-yl)-hydroxymethyl]phosphonic acid], which “antioxidative potential, activity compared with trolox (TEAC)” value is on record?
A: Its value is 0.93.

Q: For `Cc1c(C)c2c(c(C)c1O)CCC(C)(C(=O)O)O2` (centres unmarked) [trolox, reference compound], which “antioxidative potential, activity compared with trolox (TEAC)” value is on record?
A: The value was 1.0.
